Measurements reported in ChEMBL document CHEMBL5465560, “Selectivity Literature for EUbOPEN Chemogenomic Library” (2024).
Each block holds one compound with its values, some of them ahead of it.

How the values were obtained:
[1] = test system: Tyrosine-protein kinase ABL1 (Homo sapiens), P00519 [Q252H]; experiment: (§1) Selectivity interaction (KinomeScan (DiscoverX)) EUB0000666a ABL1; details: at 10 µM
[2] = test system: Tyrosine-protein kinase ABL1 (Homo sapiens), P00519 [E255K]; experiment: as §1; details: at 10 µM
[3] = test system: Tyrosine-protein kinase ABL1 (Homo sapiens), P00519 [F317L]; experiment: as §1; details: at 10 µM
[4] = test system: Tyrosine-protein kinase ABL1 (Homo sapiens), P00519 [F317I]; experiment: as §1; details: at 10 µM
[5] = test system: Tyrosine-protein kinase ABL1 (Homo sapiens), P00519 [H396P]; experiment: as §1; details: at 10 µM
[6] = test system: Tyrosine-protein kinase ABL1 (Homo sapiens), P00519 [T315I]; experiment: as §1; details: at 10 µM
[7] = molecular target: Tyrosine-protein kinase ABL1 (Homo sapiens, UniProt P00519); experiment: as §1; details: at 10 µM
[8] = molecular target: Protein kinase C alpha type (Homo sapiens, UniProt P17252); experiment: Selectivity interaction (Kinase panel (33PanQinase(R) Activity Assay)) EUB0000877a PRKCA
[9] = molecular target: T1, Phosphatidylinositol 4-kinase beta (Homo sapiens, UniProt Q9UBF8); experiment: Selectivity interaction (KinomeScan (DiscoverX)) EUB0000607a PI4KB; details: at 10 µM
[10] = molecular target: T1, Phosphatidylinositol 4-kinase beta; experiment: Selectivity interaction (ActivX KiNativ screen (kinase selectivity in THP-1 cell lysates)) EUB0000639a PI4KB; assay type: subcellular; details: lysate, at 0.01 µM
[11] = molecular target: Proto-oncogene tyrosine-protein kinase Src (Homo sapiens, UniProt P12931); experiment: Selectivity interaction (ProQinase) EUB0000171b SRC
[12] = molecular target: T2, Testis-specific serine/threonine-protein kinase 1 (Homo sapiens) (UniProt Q9BXA7); details: at 10 µM
T2 sequence (whole entry): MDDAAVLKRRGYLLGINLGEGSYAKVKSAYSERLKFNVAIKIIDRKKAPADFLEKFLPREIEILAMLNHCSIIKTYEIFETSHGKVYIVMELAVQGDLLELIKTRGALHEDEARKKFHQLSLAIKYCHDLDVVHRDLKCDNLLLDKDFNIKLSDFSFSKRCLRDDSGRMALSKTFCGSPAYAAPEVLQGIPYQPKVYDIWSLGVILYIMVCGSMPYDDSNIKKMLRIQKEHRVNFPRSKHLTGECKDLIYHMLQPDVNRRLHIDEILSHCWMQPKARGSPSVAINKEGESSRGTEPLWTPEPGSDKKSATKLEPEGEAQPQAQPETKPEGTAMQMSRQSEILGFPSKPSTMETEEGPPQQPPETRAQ

[13] = molecular target: T3, Serine/threonine-protein kinase TBK1 (Homo sapiens) (UniProt Q9UHD2); experiment: Selectivity interaction (KinomeScan (DiscoverX)) EUB0000045b TBK1
T3 sequence (whole entry): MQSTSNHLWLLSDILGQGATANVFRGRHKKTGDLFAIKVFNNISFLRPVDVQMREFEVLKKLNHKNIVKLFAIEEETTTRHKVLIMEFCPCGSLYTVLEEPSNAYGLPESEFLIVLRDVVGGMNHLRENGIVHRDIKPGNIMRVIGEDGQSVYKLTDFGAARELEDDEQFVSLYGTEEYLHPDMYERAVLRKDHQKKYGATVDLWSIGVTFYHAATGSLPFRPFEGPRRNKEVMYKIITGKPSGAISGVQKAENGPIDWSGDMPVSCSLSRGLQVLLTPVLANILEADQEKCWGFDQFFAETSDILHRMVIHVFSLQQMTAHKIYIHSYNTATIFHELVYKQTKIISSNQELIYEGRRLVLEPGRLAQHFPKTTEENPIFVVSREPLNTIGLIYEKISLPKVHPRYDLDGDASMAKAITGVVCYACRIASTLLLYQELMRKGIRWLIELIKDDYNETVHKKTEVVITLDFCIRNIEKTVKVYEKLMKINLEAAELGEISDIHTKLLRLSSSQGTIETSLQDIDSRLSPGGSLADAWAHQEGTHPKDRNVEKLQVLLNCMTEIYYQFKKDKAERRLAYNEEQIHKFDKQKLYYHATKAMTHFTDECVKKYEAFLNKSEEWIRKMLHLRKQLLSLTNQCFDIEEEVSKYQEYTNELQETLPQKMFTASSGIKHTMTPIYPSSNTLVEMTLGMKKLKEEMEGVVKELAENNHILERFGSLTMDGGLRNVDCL

[14] = molecular target: STE20-like serine/threonine-protein kinase (Homo sapiens, UniProt Q9H2G2); experiment: Selectivity interaction (Kinase panel (KiNativ target engagement assay in Jurkat cells)) EUB0001635a SLK; assay type: cell-based; details: Selectivity number of off-targets 0.0, Selectivity number of targets 233.0, Source Knowledge https://www.sciencedirect.com/science/article/pii/S2451945619300674?via%3Dihub, at 1 µM
[15] = molecular target: Vascular endothelial growth factor receptor 1 (Homo sapiens) (UniProt P17948); details: at 10 µM
[16] = molecular target: Receptor tyrosine-protein kinase erbB-4 (Homo sapiens, UniProt Q15303); details: at 10 µM
[17] = molecular target: MAP kinase-interacting serine/threonine-protein kinase 1 (Homo sapiens) (UniProt Q9BUB5); experiment: Selectivity interaction (KinomeScan (DiscoverX)) EUB0001619a MKNK1; details: at 1 µM
Chain of MAP kinase-interacting serine/threonine-protein kinase 1 (Homo sapiens) (Q9BUB5 whole entry, looked up): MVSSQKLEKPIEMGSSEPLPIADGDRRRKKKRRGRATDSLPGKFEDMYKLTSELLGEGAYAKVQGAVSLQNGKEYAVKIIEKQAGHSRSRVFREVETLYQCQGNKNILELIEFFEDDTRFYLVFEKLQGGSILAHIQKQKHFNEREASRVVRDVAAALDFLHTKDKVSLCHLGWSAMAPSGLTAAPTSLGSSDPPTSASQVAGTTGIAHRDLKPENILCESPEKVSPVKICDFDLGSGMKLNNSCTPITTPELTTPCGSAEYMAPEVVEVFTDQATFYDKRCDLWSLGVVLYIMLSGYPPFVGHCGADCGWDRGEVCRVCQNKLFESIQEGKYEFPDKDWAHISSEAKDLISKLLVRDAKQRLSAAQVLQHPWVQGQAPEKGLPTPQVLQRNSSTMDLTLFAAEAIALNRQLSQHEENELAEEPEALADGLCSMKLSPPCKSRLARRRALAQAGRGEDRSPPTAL

T1 sequence (Q9UBF8 2-816 limits assumed): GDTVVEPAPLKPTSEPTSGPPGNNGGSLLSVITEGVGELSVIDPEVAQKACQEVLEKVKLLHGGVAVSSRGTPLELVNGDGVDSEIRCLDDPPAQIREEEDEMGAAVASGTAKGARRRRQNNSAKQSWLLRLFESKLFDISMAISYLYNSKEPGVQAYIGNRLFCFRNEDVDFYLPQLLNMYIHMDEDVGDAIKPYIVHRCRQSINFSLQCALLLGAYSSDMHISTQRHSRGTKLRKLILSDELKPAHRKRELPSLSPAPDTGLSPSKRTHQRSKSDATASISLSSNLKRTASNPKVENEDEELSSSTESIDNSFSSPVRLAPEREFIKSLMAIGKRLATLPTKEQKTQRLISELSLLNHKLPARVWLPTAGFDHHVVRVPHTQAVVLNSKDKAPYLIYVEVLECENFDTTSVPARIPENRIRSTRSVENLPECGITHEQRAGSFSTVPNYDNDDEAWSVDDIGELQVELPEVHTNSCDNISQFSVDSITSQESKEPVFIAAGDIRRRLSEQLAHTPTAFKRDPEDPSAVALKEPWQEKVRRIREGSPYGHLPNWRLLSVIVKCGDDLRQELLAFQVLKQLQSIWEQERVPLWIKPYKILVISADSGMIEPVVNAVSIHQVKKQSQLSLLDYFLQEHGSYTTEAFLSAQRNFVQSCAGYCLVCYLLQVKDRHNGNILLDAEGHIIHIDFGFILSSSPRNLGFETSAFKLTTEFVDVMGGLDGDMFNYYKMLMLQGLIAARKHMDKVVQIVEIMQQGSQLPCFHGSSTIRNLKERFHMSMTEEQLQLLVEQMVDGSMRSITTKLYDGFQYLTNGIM
Chain of Proto-oncogene tyrosine-protein kinase Src (P12931 2-536 limits assumed): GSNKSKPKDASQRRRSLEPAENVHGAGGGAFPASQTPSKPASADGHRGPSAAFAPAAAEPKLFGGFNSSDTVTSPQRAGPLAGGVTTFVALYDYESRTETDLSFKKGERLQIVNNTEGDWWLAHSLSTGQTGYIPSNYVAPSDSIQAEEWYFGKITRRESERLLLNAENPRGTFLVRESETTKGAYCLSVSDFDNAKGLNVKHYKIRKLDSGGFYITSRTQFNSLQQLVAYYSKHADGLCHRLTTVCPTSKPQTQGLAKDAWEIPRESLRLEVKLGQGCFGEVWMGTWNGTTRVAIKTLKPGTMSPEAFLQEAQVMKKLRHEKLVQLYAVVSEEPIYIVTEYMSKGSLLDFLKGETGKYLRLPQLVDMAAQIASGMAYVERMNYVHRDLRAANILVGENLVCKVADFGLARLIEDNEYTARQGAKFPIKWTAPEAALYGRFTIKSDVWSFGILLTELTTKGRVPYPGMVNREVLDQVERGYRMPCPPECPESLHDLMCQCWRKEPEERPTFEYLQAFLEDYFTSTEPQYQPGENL
Chain of Vascular endothelial growth factor receptor 1 (Homo sapiens) (P17948 whole entry): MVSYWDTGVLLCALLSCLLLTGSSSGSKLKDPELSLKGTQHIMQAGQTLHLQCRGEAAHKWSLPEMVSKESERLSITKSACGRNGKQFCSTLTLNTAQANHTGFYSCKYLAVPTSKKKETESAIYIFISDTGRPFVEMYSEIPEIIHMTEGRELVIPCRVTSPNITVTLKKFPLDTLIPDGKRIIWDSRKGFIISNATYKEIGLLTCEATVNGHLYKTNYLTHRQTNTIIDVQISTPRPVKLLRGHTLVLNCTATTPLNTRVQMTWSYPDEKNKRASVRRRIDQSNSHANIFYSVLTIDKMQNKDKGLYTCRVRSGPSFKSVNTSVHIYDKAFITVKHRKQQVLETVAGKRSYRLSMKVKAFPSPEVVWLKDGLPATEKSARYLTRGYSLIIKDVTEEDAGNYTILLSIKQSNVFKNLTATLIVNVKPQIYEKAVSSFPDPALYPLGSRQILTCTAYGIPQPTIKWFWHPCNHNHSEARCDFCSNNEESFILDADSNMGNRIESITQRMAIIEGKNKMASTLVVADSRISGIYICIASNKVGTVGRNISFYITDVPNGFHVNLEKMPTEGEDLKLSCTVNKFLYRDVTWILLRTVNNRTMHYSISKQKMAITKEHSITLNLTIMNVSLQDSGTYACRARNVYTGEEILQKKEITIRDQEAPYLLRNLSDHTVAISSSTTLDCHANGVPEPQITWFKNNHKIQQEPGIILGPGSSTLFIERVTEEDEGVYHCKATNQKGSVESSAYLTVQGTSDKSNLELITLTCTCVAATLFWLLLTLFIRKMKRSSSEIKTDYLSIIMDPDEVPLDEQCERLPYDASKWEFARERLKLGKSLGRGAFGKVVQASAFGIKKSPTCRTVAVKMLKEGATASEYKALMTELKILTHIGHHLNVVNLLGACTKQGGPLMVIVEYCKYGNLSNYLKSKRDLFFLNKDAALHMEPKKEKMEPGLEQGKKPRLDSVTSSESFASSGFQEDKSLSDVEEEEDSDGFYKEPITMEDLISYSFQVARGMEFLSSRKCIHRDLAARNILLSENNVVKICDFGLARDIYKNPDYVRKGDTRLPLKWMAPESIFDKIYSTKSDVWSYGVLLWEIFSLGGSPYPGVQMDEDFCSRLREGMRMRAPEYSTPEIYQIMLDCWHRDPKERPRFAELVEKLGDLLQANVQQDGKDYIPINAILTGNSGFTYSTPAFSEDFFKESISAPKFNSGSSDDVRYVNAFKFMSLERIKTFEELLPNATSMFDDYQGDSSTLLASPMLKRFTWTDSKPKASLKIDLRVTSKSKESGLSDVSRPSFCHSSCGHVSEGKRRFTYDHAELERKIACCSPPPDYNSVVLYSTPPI
Chain of STE20-like serine/threonine-protein kinase (Q9H2G2 whole entry, looked up): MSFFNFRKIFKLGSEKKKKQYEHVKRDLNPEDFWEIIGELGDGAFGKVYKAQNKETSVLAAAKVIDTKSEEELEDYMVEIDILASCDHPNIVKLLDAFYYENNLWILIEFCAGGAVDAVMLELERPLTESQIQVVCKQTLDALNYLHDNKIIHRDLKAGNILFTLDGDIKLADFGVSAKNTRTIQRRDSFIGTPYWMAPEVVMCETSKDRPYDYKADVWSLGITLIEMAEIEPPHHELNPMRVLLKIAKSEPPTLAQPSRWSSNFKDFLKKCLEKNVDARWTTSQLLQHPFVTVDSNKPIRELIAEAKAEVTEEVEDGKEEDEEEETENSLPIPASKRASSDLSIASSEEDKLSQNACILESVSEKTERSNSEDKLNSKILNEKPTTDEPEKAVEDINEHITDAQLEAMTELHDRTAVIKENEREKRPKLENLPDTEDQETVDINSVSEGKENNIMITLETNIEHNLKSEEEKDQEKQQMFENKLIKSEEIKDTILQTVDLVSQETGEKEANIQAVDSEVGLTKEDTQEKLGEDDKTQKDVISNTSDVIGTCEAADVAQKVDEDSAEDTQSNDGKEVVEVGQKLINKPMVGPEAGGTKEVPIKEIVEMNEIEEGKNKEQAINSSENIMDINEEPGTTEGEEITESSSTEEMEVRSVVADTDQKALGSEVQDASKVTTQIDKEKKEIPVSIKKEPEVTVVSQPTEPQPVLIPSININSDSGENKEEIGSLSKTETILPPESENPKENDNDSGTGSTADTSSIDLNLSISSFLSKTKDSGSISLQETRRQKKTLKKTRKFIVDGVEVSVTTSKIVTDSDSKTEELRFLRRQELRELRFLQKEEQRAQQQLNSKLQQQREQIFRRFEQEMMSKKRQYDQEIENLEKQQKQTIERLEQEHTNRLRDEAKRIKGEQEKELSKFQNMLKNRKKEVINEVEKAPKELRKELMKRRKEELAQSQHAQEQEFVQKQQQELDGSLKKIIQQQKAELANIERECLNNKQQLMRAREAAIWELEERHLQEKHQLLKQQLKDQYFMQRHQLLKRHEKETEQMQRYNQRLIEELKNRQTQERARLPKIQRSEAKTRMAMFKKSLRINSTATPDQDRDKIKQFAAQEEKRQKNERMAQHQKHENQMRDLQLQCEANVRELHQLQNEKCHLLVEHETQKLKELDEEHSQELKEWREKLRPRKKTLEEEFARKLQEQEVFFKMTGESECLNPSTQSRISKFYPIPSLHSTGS

Structure (SMILES): O=C(NOC[C@H](O)CO)c1ccc(F)c(F)c1Nc1ccc(I)cc1F
% of control [1]: 100% | % of control [2]: 100% | % of control [3]: 100% | % of control [4]: 100% | % of control [5]: 100% | % of control [6]: 82% | % of control [7]: 77%

IC50 [8]: > 10 µM
Structure (SMILES): CCC(=O)N1CC[C@H](Nc2ncnc3c2CN(c2cnc(OC)c(C(F)(F)F)c2)CC3)C1 [LENIOLISIB]

Structure (SMILES): CNC(=O)Nc1ccc(-c2nc(N3CC4CCC(C3)O4)c3cnn(C4CCC5(CC4)OCCO5)c3n2)cc1
% of control [9]: 100%

% of inhibition [10]: 1.7%
Structure (SMILES): CC[C@@H]1[C@H](F)C(=O)N[C@@H]1COc1nccc2cc(C(N)=O)c(OC)cc12 [ZIMLOVISERTIB]

% of control ([11]; at 1 µM): 98% | % of control ([11]; at 5 µM): 86%
Structure (SMILES): C=CC(=O)Nc1cccc(C(=O)Nc2ccc(Nc3cc(-c4[nH]c(SC)nc4C)ccn3)cc2)c1

Structure (SMILES): COCC(=O)NC/C=C/c1ccc2ncnc(Nc3ccc(Oc4ccc(C)nc4)c(C)c3)c2c1 [CP-724714]
% of control [12]: 100%

Structure (SMILES): C=CC(=O)Nc1cc(-n2c(=O)ccc3cnc4ccc(-c5ccc(NS(C)(=O)=O)cc5)cc4c32)ccc1C
% of control ([13]; at 1 µM): 100% | % of control ([13]; at 10 µM): 77%

Structure (SMILES): C=CC(=O)Nc1ccc(C(=O)Nc2[nH]nc3c2CN(C(=O)N[C@H](CN(C)C)c2ccccc2)C3(C)C)cc1
% of engagement [14]: -7.6%

Structure (SMILES): Cc1cc([C@@H](C)Nc2ccccc2C(=O)O)c2nc(N3CCOCC3)cc(=O)n2c1 [AZD-6482]
% of control [15]: 83% | % of control [16]: 100%

Structure (SMILES): N#Cc1cccc(-c2c[nH]c3ncnc(N4CCOCC4)c23)c1
% of control [17]: 100%
